Several values for one entry are separate records, joined by “and”; a condition that tells them apart may be missing. Equal values may be shown once.
What was measured:
human A2AR = molecular target: T1, human A2AR (Homo sapiens, UniProt P29274); test: Radioligand competitive binding assay, [3H] ZM 241385 displacement; details: for Ki: membranes of transfected HEK 293T cells, 1 nM [3H] ZM 241385, read-out: Ki A2A; for A1/A2A (selectivity): ratio Ki A1 / Ki A2A; for binding affinity and selectivity (in words): A2AR over A1R
T1 construct: expressed in transfected cells; host or cells: HEK 293T
T1 sequence (P29274 whole entry): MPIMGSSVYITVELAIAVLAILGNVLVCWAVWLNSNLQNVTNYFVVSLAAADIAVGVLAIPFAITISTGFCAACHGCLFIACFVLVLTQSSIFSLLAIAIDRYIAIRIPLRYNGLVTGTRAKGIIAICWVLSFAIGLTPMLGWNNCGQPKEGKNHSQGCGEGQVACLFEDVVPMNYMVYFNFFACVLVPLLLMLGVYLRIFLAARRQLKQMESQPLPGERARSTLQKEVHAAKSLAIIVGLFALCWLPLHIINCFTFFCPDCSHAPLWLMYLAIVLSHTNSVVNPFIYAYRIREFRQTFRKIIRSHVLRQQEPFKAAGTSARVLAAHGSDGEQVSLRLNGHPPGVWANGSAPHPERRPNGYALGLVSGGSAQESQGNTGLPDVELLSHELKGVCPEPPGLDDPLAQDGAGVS
Method: Cells were washed twice with ice-cold PBS (pH 7.4). Pellet of washed cells was resuspended in hypotonic lysis buffer (10 mM NaCl, 2 mM MgCl2, 1 mM DTT, 10 mM Hepes, 2 mM PMSF, pH 7.4) and sonicated (4 cycles of 10 s duration each). Homogenate were centrifuged at 2,500 rpm for 10 minutes at 4° C. Resulting supernatants was again centrifuged at 38,000 rpm for 30 minutes at 4° C. Pellets obtained were resuspended in Tris-HCl (pH 7.4) buffer. […] Aliquots of membrane proteins from both A2AR and A1R were rapidly frozen and stored at −20° C. Radioligand [^3H] […] DPCPX were purchased from American Radiolabeled Chemicals, St. Louis, USA.
About 10 μg of membrane protein was added to each well of a 96-well filter plate. Incubation buffer containing adenosine deaminase (2.5 U/ml) was added to the membrane protein and incubated at 37° C. for 1 h, to remove endogenous adenosine. Varying concentrations (1 pM to 1 μM) of test compounds of general formula A was added in duplicate and volume was adjusted to 50 μl by adding incubation buffer. […] Filter plates were incubated at 26° C. for 30 minutes and reaction was terminated by rapid filtration of unbound radioligands. Filters containing ligand bound receptors were washed three times with ice-cold washing buffer to completely remove any unbound radioligand or receptor. Finally, 100 μl of scintillation fluid was added to each well and incubated overnight at room temperature. β-counts emitted from bound radioligands ([^3H] ZM241385 and [^3H] DPCPX) were counted using β-counter. Duplicate values of β-counts per minute at corresponding concentrations (1 pM to 1 μM) were added to the data sheet of graph pad prism 4.0. Concentration values were considered as X-values and counts per minute were considered as Y-values (in duplicate). X-values were transformed into log X and Ki value was calculated using nonlinear regression (curve fit program).

[1] = system: haloperidol induced catalepsy; test: Haloperidol induced catalepsy in mice; type: in vivo, Swiss Albino male mice; details: for catalepsy score: haloperidol 2.5 mg/kg, after 120 min
Method: Adult Swiss Albino male mice (4-6 weeks, 20-30 g) were pro-cured from National Institute of Communicable Diseases, Delhi, India and were kept under controlled conditions of temperature (22±1° C.), humidity (60±5%), and illumination (12 h light; 12 h darkness) at the animal house, Dr. B. R. Ambedkar Centre for Bio-medical Research, University of Delhi, Delhi, India. The experimental protocol met the National Guidelines on the ‘Proper Care and Use of Animals in Laboratory Research’ (Indian National Science Academy, New Delhi) and was approved by the Animal Ethics Committee of the department. The procedures adhered to the NIH Guidelines for the Care and Use of Laboratory Animals.
Double distilled filtered and deionized water (Milli-Q-system Waters, Milford, Mass.) was used through out the study. […] Mice were divided into seven groups of four mice each. […] Saline and 1% acacia in saline were injected to two control groups.
The inability of an animal to correct an externally imposed posture (Catalepsy score) was measured at different time intervals with both limbs on a square wooden block (3 cm high) by placing the animals on a flat horizontal surface. The length of time that animals held the bar without any voluntary movement was recorded, with a cutoff time of 3 min. Catalepsy score of each mice in a group was taken to compute the mean value of the group.

human A2A receptors = molecular target: T2, human A2A receptors (Homo sapiens, UniProt P29274); test: cAMP functional assay in NECA stimulated HEK293T cells; type: cell-based
T2 construct: expressed in transfected cells; host or cells: HEK 293T
T2 sequence (P29274 whole entry): as above
Method: Standard curve was prepared using Logit-Log Paper plot by drawing percent bound (B/Bo) versus concentration of cAMP for the standards. The concentration of the cAMP in the samples was determined by interpolation.

human A1R = molecular target: T3, human A1R (Homo sapiens, UniProt P30542); test: Radioligand competitive binding assay, [3H] DPCPX displacement; details: membranes of transfected HEK 293T cells, 1 nM [3H] DPCPX; read-out: Ki A1
T3 construct: expressed in transfected cells; host or cells: HEK 293T
T3 sequence (P30542 1-326): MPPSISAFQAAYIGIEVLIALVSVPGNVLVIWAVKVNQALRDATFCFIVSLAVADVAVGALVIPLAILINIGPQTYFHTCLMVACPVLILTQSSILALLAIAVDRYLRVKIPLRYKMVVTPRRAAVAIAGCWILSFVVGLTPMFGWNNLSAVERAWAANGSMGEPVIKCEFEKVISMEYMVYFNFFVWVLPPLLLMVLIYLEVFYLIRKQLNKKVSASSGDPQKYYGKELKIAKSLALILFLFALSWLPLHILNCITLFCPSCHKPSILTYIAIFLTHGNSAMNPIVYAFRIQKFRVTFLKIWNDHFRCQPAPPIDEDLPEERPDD
Method: About 1×10^6 cells per ml of transfected HEK 293T cells with human A2AR and A1R were centrifuged at 2,500 rpm for 2 minutes in 15 ml centrifuge tubes. Cells were washed twice with ice-cold PBS (pH 7.4). Pellet of washed cells was resuspended in hypotonic lysis buffer (10 mM NaCl, 2 mM MgCl2, 1 mM DTT, 10 mM Hepes, 2 mM PMSF, pH 7.4) and sonicated (4 cycles of 10 s duration each). Homogenate were centrifuged at 2,500 rpm for 10 minutes at 4° C. Resulting supernatants was again centrifuged at 38,000 rpm for 30 minutes at 4° C. Pellets obtained were resuspended in Tris-HCl (pH 7.4) buffer. Membrane protein concentrations were determined using Lowry method (Lowry et al., 1951). Aliquots of membrane proteins from both A2AR and A1R were rapidly frozen and stored at −20° C. Radioligand [^3H] ZM 241385 and [^3H] DPCPX were purchased from American Radiolabeled Chemicals, St. Louis, USA.
About 10 μg of membrane protein was added to each well of a 96-well filter plate. Incubation buffer containing adenosine deaminase (2.5 U/ml) was added to the membrane protein and incubated at 37° C. for 1 h, to remove endogenous adenosine. Varying concentrations (1 pM to 1 μM) of test compounds of general formula A was added in duplicate and volume was adjusted to 50 μl by adding incubation buffer. Further, constant concentration of radioligands (1 nM for [^3H] ZM 241385 and 1 nM of [^3H] DPCPX) was added to respective wells and final volume was adjusted to 200 μl by adding the incubation buffer. Filter plates were incubated at 26° C. for 30 minutes and reaction was terminated by rapid filtration of unbound radioligands. Filters containing ligand bound receptors were washed three times with ice-cold washing buffer to completely remove any unbound radioligand or receptor. Finally, 100 μl of scintillation fluid was added to each well and incubated overnight at room temperature. β-counts emitted from bound radioligands ([^3H] ZM241385 and [^3H] DPCPX) were counted using β-counter. Duplicate values of β-counts per minute at corresponding concentrations (1 pM to 1 μM) were added to the data sheet of graph pad prism 4.0. Concentration values were considered as X-values and counts per minute were considered as Y-values (in duplicate). X-values were transformed into log X and Ki value was calculated using nonlinear regression (curve fit program). The calculated Ki values for A2AR and A1R are given bellow (table 1).

[2] = 10 mg/kg ip pre-treatment, mean±SEM, n=4

| Ki (human A2AR) | A1/A2A (selectivity) (human A2AR) | Ki (human A1R) | SMILES | other results |
| --- | --- | --- | --- | --- |
| 11 nM | 0.000053 |  | CCn1c(/N=C/c2ccc(F)cc2)c(C#N)sc1=S [Compound 2a, (4E)-4-(4-fluorobenzylideneamino)-3-ethyl-2,3-dihydro-2-thioxothiazole-5-carbonitrile] |  |
|  |  |  | Nc1nc2c(cnn2CCc2ccccc2)c2nc(-c3ccco3)nn12 [SCH58261, reference compound] | catalepsy score [1, 2]: 0.65±0.125; catalepsy score ([1]; 10 mg/kg ip pre-treatment, mean±SEM, n=4, listed as SCH 58261): 0.625±0.125; cAMP concentration (human A2A receptors): 0.55 pmol/mL; selectivity to A2AR (human A2AR; reference SCH58261): 483 fold |
| 0.03 nM | 3393.3 | 102 nM | CCCn1c(/N=C/c2ccc(F)cc2)c(C#N)sc1=S [Compound 2b, (4E)4-(4-fluorobenzylideneamino)-3-propyl-2,3-dihydro-2-thioxothiazole-5-carbonitrile] | binding affinity and selectivity (in words) (human A2AR): both high binding affinity and selectivity |
| 0.14 nM | 2947 and 2947.85 | 413 nM | N#Cc1sc(=S)n(-c2ccccc2)c1/N=C/c1ccc(Cl)cc1 [Compound 2i, (4E)4-(4-chlorobenzylideneamino)-3-phenyl-2,3-dihydro-2-thioxothiazole-5-carbonitrile] | melting point: 187 to 189 °C; binding affinity and selectivity (in words) (human A2AR): both high binding affinity and selectivity |
| 0.027 nM | 618.51 | 16.7 nM | CCCCn1c(N=Cc2ccc(F)cc2)c(C#N)sc1=S [Compound 2c, (4E)-4-flurobenzylideneamino)-3-butyl-2,3-dihydro-2-thioxothiazole-5-carbonitrile] |  |
| 7.61 nM | 0.013 | 0.1 nM | CCCCn1c(/N=C/c2ccc(Br)cc2)c(C#N)sc1=S [Compound 2l, (4E)-4-(4-bromobenzylideneamino)-3-butyl-2,3-dihydro-2-thioxothiazole-5-carbonitrile] |  |
| 0.0047 nM | 0.13 |  | N#Cc1sc(=S)n(-c2ccccc2)c1/N=C/c1ccc(F)cc1 [Compound 2e, (4E)-4-(4-flurobenzylideneamino)-3-phenyl-2,3-dihydro-2-thioxothiazole-5-carbonitrile] |  |
| 54.8 nM | 0.042 | 2.32 nM | CCCn1c(/N=C/c2ccc(Cl)cc2)c(C#N)sc1=S [Compound 2g, (4E)4-(4-chlorobenzylideneamino)-3-propyl-2,3-dihydro-2-thioxothiazole-5-carbonitrile] |  |
| 9.6 nM | 2565 and 2565.62 | 24600 nM | CCCCn1c(/N=C/c2ccc(Cl)cc2)c(C#N)sc1=S [Compound 2h] | binding affinity and selectivity (in words) (human A2AR): both high binding affinity and selectivity |
| 0.067 nM | 3.73 | 0.25 nM | N#Cc1sc(=S)n(CCc2ccccc2)c1/N=C/c1ccc(Br)cc1 [Compound 2m, (4E)4-(4-bromobenzylideneamino)-3-phenylethyl-2,3-dihydro-2-thioxothiazole-5-carbonitrile] |  |
|  | 13.76 |  | CCn1c(/N=C/c2ccc(Cl)cc2)c(C#N)sc1=S [Compound 2f, (4E)-4-(4-chlorobenzylideneamino)-3-ethyl-2,3-dihydro-2-thioxothiazole-5-carbonitrile] |  |
| 0.01 nM | 0.074 |  | CCn1c(/N=C/c2ccc(Br)cc2)c(C#N)sc1=S [Compound 2j, (4E)-4-(4-Bromobenzylideneamino)-3-ethyl-2,3-dihydro-2-thioxothiazole-5-carbonitrile] |  |
| 2.64 nM | 336.81 | 889 nM | N#Cc1sc(=S)n(CCc2ccccc2)c1N=Cc1ccc(F)cc1 [Compound 2d, (4E)-4-(4-flurobenzylideneamino)-3-phenylethyl-2,3-dihydro-2-thioxothiazole-5-carbonitrile] |  |
| 1.8 nM | 337.05 | 607 nM | CCCn1c(/N=C/c2ccc(Br)cc2)c(C#N)sc1=S [Compound 2k, (4E)4-(4-bromobenzylideneamino)-3-propyl-2,3-dihydro-2-thioxothiazole-5-carbonitrile] |  |
| 0.004 nM and 0.0042 nM |  | 186 nM | N#Cc1sc(=S)n(-c2ccccc2)c1/N=C/c1ccc(Br)cc1 [Compound 2n, (4E)4-(4-bromobenzylideneamino)-3-phenyl-2,3-dihydro-2-thioxothiazole-5-carbonitrile] | catalepsy score [1, 2]: 0.75±0.144; catalepsy score ([1]; pre-treatment at 5, 10, 15, 20 mg/kg): 0.75±0.140; catalepsy score, compound alone ([1]; without haloperidol, up to 120 minutes): zero; melting point: 185 to 187 °C |

— US9518033B2, “(4E)-4-(4-substituted benzylideneamino)-2,3-dihydro-3-substituted-2-thioxothiazole-5-carbonitriles as A2AR antagonist and process for preparation thereof” (COUNCIL OF SCIENTIFIC & INDUSTRIAL RESEARCH, priority 2013, dated 2016)
